# Measurements: patent publication USRE36374E, “1,2,3-triazole and tetrazole substituted piperidine or tetrahydropyridine compounds useful as acetylcholine agonists” (priority 1987, dated 1999)
# Structures can show the parent of a compound that is named as a salt. Where two headings read alike, the source gives them in different places.
# Assays:
# [1] = target: central cholinergic receptors; experiment: 3H-oxotremorine-M (Oxo-M) displacement from rat brain homogenates; assay type: binding; conditions: displacement of 3H-oxotremorine-M, pH 7.4, 40 min, 30° C
# Experimental: (§1) Affinity to central cholinergic receptors in vitro was measured as the ability of the compounds to displace ^3 H-oxotremorine-M (Oxo-M) from rat brain homogenates, while affinity to central muscarinic M-1-receptors in vitro was measured as the ability of the compounds to displace ^3 H-pirenzepin (Pz) from rat brain homogenates.
# ^3 H-oxotremorine M binding
# was performed essentially as described by Birdsdall et al., 1980. Briefly, rat brains were homogenized in 100 vol (w/v) 10 mM Na,K-phosphate buffer (pH 7.4) and aliquots incubated with ^3 H-oxotremorine M (84.9 Ci/m-mol, NEN) alone or in the presence of test compound in a total volume of 1.5 ml for 40 min. at 30° C. The reaction was stopped by adding 5 ml cold buffer and filtered through Whatman GF/B filters soaked previously in 0.1% polyethylenimin (Sigma) for minimum 30 min. The filters were washed once with the same volume of buffer, transferred to scintillation vials and extracted in scintillation fluid (Pico-fluor 15, Packard) for at least two hours before counted in a liquid scintillation spectrometer (Beckman LS 1800). Non-specific binding was estimated at 10 μM atropine and all estimations made in triplicate. At least two displacement curves were made for each compound tested.
# Birdsdall N. J. M., Hulme E. C., and Burgen A. S. V. (1980). "The Character of Muscarinic Receptors in Different Regions of the Rat Brain". Proc. Roy. […] London (Series B) 207, 1.
# [2] = target: T1, central muscarinic M-1-receptors (Rattus norvegicus, UniProt P08482); experiment: 3H-pirenzepine (Pz) displacement from rat brain homogenates; assay type: binding
# T1 sequence (P08482 1-460): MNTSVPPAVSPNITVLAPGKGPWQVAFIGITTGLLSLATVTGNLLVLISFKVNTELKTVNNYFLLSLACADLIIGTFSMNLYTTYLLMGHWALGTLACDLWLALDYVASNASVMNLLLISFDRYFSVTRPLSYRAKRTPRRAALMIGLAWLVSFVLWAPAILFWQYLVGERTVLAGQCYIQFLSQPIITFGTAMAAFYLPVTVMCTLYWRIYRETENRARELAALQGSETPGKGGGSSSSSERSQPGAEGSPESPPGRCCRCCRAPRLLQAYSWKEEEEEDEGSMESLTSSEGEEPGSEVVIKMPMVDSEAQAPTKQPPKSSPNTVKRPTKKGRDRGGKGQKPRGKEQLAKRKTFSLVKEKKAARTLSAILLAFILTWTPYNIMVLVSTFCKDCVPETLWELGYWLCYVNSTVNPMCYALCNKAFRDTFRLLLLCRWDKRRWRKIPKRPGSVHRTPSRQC
# Experimental: as §1
# was performed essentially as described by Watson et al., 1983, the conditions being very much the same as for ^3 H-oxotremorine binding, except that aliquots were incubated with 1.0 nM ^3 H-pirenzepine for 60 min. at 25° C. and that the reaction was stopped by direct filtration followed by 3 washes with 4 ml buffer.
# Watson, M., Yamamura, H. I., and Roeske, W. R. (1983). "A unique regulatory profile and regional distribution of ^3 H-pirenzepin binding in the rat provide evidence for distinct M1 and M2 muscarinic receptor subtypes". Life Sci. 32 (1983) 3001-3011.
# [3] = displacement of 1.0 nM 3H-pirenzepine, rat brain homogenates, 60 min, 25° C, read-out: Pz, IC50
Compound,IC50 [1] [nM],"IC50 [2, 3] [nM]",IC50 [2] [nM]
"Cn1nnc(C2=CCCNC2)n1 [Compound 8, 2-Methyl-5(1,2,5,6-tetrahydro-3-pyridyl)-2H-tetrazole, hydrobromide]",6.3,2100,
"Cn1nnnc1C1=CCCNC1 [Compound 9, 1-Methyl-5(1,2,5,6-tetrahydro-3-pyridyl)-2H-tetrazole, fumarate]",3200,27000,
"CN1CCC=C(c2nnn(C)n2)C1 [Compound 10, 2-Methyl-5-(1-methyl-1,2,5,6-tetrahydro-3-pyridyl)2H-tetrazole]",8.7,390,
"Cn1nnc(C2CCCNC2)n1 (centres unmarked) [Compound 13, 2-Methyl-(3-piperidyl)-2H-tetrazole, hydrochloride]",47,,3600
"CN1CCCC(c2nnn(C)n2)C1 (centres unmarked) [Compound 14, 2-Methyl-5-methyl-3-piperidyl)-2H-tetrazole, oxalate]",1700,7400,
"CC(C)n1nnc(C2=CCCN(C)C2)n1 [Compound 16, 2-Isopropyl-5-(1-methyl-1,2,5,6-tetrahydro-3-pyridyl)-2H-tetrazole, fumarate]",120,130,
"CC(C)n1nnc(C2=CCCNC2)n1 [Compound 17, 2-Isopropyl-5-(1,2,5,6-tetrahydro-3-pyridyl)-2H-tetrazole, hydrobromide]",280,480,
"CCn1nnc(C2=CCCNC2)n1 [Compound 19, 2-Ethyl-5-(1,2,5,6-tetraydro-3-pyridyl)-2H-tetrazole, hydrobromide]",32,1500,
"CCn1nnc(C2=CCCN(C)C2)n1 [Compound 20, 2-Ethyl-5-(1-methyl-1,2,5,6-tetrahydro-3-pyridyl)-2H-tetrazole, oxalate]",16,130,
"C#CCn1nnc(C2=CCCNC2)n1 [Compound 22, 2-(2-Propynyl)-5-(1,2,5,6-tetrahydropyridyl)-2H-tetrazole, hydrochloride]",,380,
"C=C=Cn1nnc(C2=CCCNC2)n1 [Compound 23, 2-Allenyl-5-(1,2,5,6-tetrahydro-3-pyridyl)-2H-tetrazole, hydrochloride]",140,1100,
"C#CCn1nnc(C2CCCNC2)n1 (centres unmarked) [Compound 26, 2-(2-Propynyl)-5-(3-piperidyl)2H-tetrazole, hydrochloride]",44,,400
"CC1CC=C(c2nnn(C)n2)CN1 (centres unmarked) [Compound 30, 2-Methyl-5-(6-methyl-1,2,5,6-tetrahydro-3-pyridyl)-2H-tetrazole, hydrobromide]",250,1400,
"CC1CC=C(c2nnn(C)n2)CN1C (centres unmarked) [Compound 31, 2-Methyl-5-(1,6-dimethyl-1,2,5,6-tetrahydro-3-pyridyl)-2H-tetrazole]",310,140,
"CC1CC=C(c2nnn(C(C)C)n2)CN1 (centres unmarked) [Compound 33, 2-Isopropyl-5-(6-methyl-1,2,5,6-tetraydro-3-pyridyl)-2H-tetrazole, hydrobromide]",320,900,
"CC1CC=C(c2nnn(C(C)C)n2)CN1C (centres unmarked) [Compound 34, 2-Isopropyl-5-(1,6-dimethyl-1,2,5,6-tetrahydro-3-pyridyl)-2H-tetrazole]",180,350,
"C#CCn1nnc(C2=CCC(C)NC2)n1 (centres unmarked) [Compound 36, 2-(2-Propynyl-5-(6-methyl-1,2,5,6-tetrahydro-3-pyridyl)-2H-tetrazole, hydrochloride]",390,250,
"CC1=C(c2nnn(C)n2)CN(C)CC1 [Compound 38, 2-Methyl-5(1,4-dimethyl-1,2,5,6-tetrahydro-3-pyridyl)-2H-tetrazole, oxalate]",1000,1200,
"CC1=C(c2nnn(C)n2)CNCC1 [Compound 39, 2-Methyl-5-(4-methyl-1,2,5,6-tetrahydro-3-pyridyl)-2H-tetrazole, 0.75 oxalate]",810,1500,

Compound,IC50 [1] [nM],"IC50 [2, 3] [nM]",IC50 [2] [nM]
"CC1C=C(c2nnn(C)n2)CNC1 (centres unmarked) [Compound 47, 2-Methyl-5-(5-methyl-1,2,5,6-tetrahydro-3-pyridyl)-2H-tetrazole, hydrobromide]",98,280,
"CC1C=C(c2nnn(C)n2)CN(C)C1 (centres unmarked) [Compound 48, 2-Methyl-5-(1,5-dimethyl-1,2,5,6-tetrahydro-3-pyridyl)-2H tetrazole, oxalate]",680,1800,
"C#CCn1nnc(C2=CC(C)CNC2)n1 (centres unmarked) [Compound 50, 2-(2-Propynyl)-5-(5-methyl-1,2,5,6-tetrahydro-3-pyridyl)-2H-tetrazole hydrochloride]",62,68,
"Cc1cc(C2=CCCNC2)on1 [Compound 54, 3-Methyl-5(1,2,5,6-tetrahydro-3-pyridyl)-isoxazole, maleate]",230,4000,
"Cc1cc(C2=CCCNC2)no1 [Compound 55, 5-Methyl-3-(1,2,5,6-tetrahydro-3-pyridyl)-isoxazole, hydrochloride]",1000,2500,
"CN1CCC=C(c2ncn(C)n2)C1 [Compound 59, 1-Methyl-3(1-methyl-1,2,5,6-tetrahydro-3-pyridyl)-1,2,4-triazole, hemifumarate]",280,610,
"Cn1cnc(C2=CCCNC2)n1 [Compound 60, 1-Methyl-3-(1,2,5,6-tetrahydro-3-pyridyl-1,2,4-triazole, dihydrobromide]",1400,4900,
"Cc1nc(C2=CCCN(C)C2)nn1C [Compound 63, 1,5-Dimethyl-3-(1-methyl-1,2,5,6-tetraydro-3-pyridyl)-1,2,4-triazole, fumarate]",710,160,
"Cc1nc(C2=CCCNC2)nn1C [Compound 64, 1,5Dimethyl-3-(1,2,5,6-tetrahydro-3-pyridyl)-1,2,4-triazole, dihydrobromide, dihydrate]",2100,2400,
"CSc1n[nH]c(C2=CCCN(C)C2)n1 [Compound 67, 3-Methylthio-5-(1-methyl-1,2,5,6-tetrahydro-3-pyridyl)-1,2,4-triazole, fumarate]",1500,2000,
"CN1CCC=C(c2cnn(C)n2)C1 [Compound 70, 2-Methyl-4-(1-methyl-1,2,5,6-tetrahydro-3-pyridyl)-1,2,3-triazole, 1.5 fumarate]",1.1,5.5,
"Cn1ncc(C2=CCCNC2)n1 [Compound 72, 2-Methyl-4-(1,2,5,6-tetrahydro-3-pyridyl)-1,2,3-triazole, fumarate]",0.48,790,
"Cc1cnc(C2=CCCN(C)C2)o1 [Compound 75, 5-Methyl-2-(1-methyl-1,2,5,6-tetraydro-3-pyridyl)-oxazole, oxalate]",57,370,
"Cc1cnc(C2=CCCNC2)o1 [Compound 76, 5-Methyl-2-(1,2,5,6-tetrahydro-3-pyridyl)-oxazole, fumarate]",190,1300,
"COc1cnc(C2=CCCN(C)C2)o1 [Compound 80, 5-Methoxy-2-(1-methyl-1,2,5,6-tetrahydro-3-pyridyl)-oxazol, oxalate]",,1500,
"COc1cnc(C2=CCCNC2)o1 [Compound 81, 5-Methoxy-2-(1,2,5,6-tetrahydro-3-pyridyl)-oxazole, 1.25 fumarate]",220,4200,
"Cc1coc(C2=CCCN(C)C2)n1 [Compound 84, 4-Methyl-2-(1-methyl-1,2,5,6-tetrahydro-3-pyridyl)-oxazole, oxalate]",28,58,
"Cc1coc(C2=CCCNC2)n1 [Compound 85, 4-Methyl-2-(1,2,5,6-tetrahydro-3-pyridyl)-oxazole, fumarate]",7.5,1400,
"CN1CCC=C(C2=NC(C)(C)CO2)C1 [Compound 87, 4,4-Dimethyl-2-1-methyl-1,2,5,6-tetrahydro-3-pyridyl)-oxazoline, fumarate]",130,400,
